According to publication PMC6881072, “The repositioning of epigenetic probes/inhibitors identifies new anti-schistosomal lead compounds and chemotherapeutic targets” (PLoS Neglected Tropical Diseases, 2019):

Columns and labels:
Format in all cases: cell-based, Schistosoma mansoni
H3K36me2 = H3K36me2 detection in adult worm histone extracts; conditions: siRNA 50 ng/μl, adult worms, vs siLuc
Protocol: LLY-507 (6.25 μM), BAY-598 (25 μM) or siSmp_000700 treated male and female worms (alongside DMSO or siLuc controls; 21 individuals per condition) were homogenized with a TissueLyser (Qiagen) and total histones extracted using the EpiQuik^TM Total Histone Extraction Kit (Epigentek). Levels of H3K36me2 in adult histone extracts were measured using the EpiQuik^TM Global Di-Methyl Histone H3-K36 Quantification Kit (Fluorimetric, Epigentek). Technical duplicates of three biological replicates of each treatment were analysed according to the manufacturer’s instructions. Fluorescent readings (530EX/590EM nm) were obtained using a POLARstar Omega (BMG Labtech, UK) microtiter plate reader. Fluorescent values of the samples were corrected by subtracting the fluorescent readings of the blank (buffer only, provided in the kit). The mean of the adjusted control values (DMSO for LLY-507/BAY-598 treated worms and siLuc for siSmp_000700 treated worms) was set at 100% H3K36me2 and the standard deviation (SD) was calculated from the normalised values.

smp_000700 = test: RNAi knockdown assessment by qRT-PCR; conditions: 48 h, vs siLuc
Protocol: (§1) Following the perfusion of 7 wks infected mice, adult worms were recovered and RNAi performed as previously described. Briefly, smp_000700 and non-specific luciferase siRNA duplexes were purchased from Sigma (siSmp_000700 = sense: GGUAAUCGGUCAUGUGUAU[dT][dT] and anti-sense: AUACACAUGACCGAUUACC[dT][dT]; siLuc = sense CUUACGCUGAGUACUUCGA[dT][dT] and anti-sense UCGAAGUACUCAGCGUAAG[dT][dT]) and used at a final concentration of 50 ng/μl. Mixed sex adult worm pairs (for knockdown assessment by quantitative reverse transcription PCR, qRT-PCR) were cultured at 37°C in DMEM supplemented with 10% FCS, 2 mM L-glutamine, […] HEPES (Sigma-Aldrich, UK), 100 Units/ml penicillin and 100 μg/ml streptomycin in an atmosphere of 5% CO2 with a 70% media exchange performed every 48 h. The experiment was replicated three times (21 worm pairs/replicate). Quantitative reverse transcription PCR (qRT-PCR) of smp_000700 abundance was performed at 48 h and adult worm motility as well as egg counts were quantified at 168 h. Levels of H3K36me2 detected in schistosome histone extracts were assessed at 72 h.
Following RNAi with siSmp_000700 and siLuc, mixed-sex adult worms were incubated for a total of 48 h before processing them for RNA isolation. […]

adult schistosome pairs = test: RNAi of adult schistosome pairs: motility and egg counts; conditions: 168 h (7 days post-treatment), vs siLuc
Protocol: as §1

siSmp_000700: siRNA duplex directed against smp_000700; sense GGUAAUCGGUCAUGUGUAU[dT][dT] (antisense AUACACAUGACCGAUUACC; 3' dTdT overhangs, further chemistry not given here)
reduction in H3K36me2 (H3K36me2): 15%
reduction of smp_000700 mRNA abundance (KD) (smp_000700): 66%
adult worm motility after RNAi (adult schistosome pairs): significant reduction in adult worm motility
egg production after RNAi (adult schistosome pairs): egg production defects
